# Reference: patent publication US12459918B2, “Isoquinolinone derivatives serving as rock protein kinase inhibitors and use thereof” (GUANGZHOU OCUSUN OPHTHALMIC BIOTECHNOLOGY CO., LTD., priority 2019, dated 2025)
# Tested on: New Zealand rabbits with normal intraocular pressure
# Experiment: Intraocular pressure reduction experiment in New Zealand rabbits with normal intraocular pressure
# Format: in vivo
# Conditions: for Intraocular pressure in the left eye: left eye (saline or solvent); for Reduction magnitude of intraocular pressure: left minus right eye
# From the text: Experimental Example 2. Intraocular Pressure Reduction Experiment in New Zealand Rabbits with Normal Intraocular Pressure
# Rabbits with normal intraocular pressure were adopted to screen intraocular pressure reduction actions of the potential compounds by eye-drop administration.
# Male New Zealand rabbits, aged 97-127 days, weighted 2.65-3.5 kg, purchased from PizhouDongfang Breeding Co. Ltd.
# The male New Zealand rabbits were randomly divided into 8 rabbits/per group using a computer-generated randomization method Animals in each group were eye-dropped with different test samples in the right eye, and normal saline or solvent in the left eye, and the volume of the administration was both 50 μL/eye. The intraocular pressure of the animals was measured before administration and in 1, 2, 4, 6, 8 and 10 hours after the administration, respectively.
smiles,measurement,setting,value
Cc1cn(COC(=O)c2ccccc2)c(=O)c2cccc(S(=O)(=O)N3CCC(N)C3)c12 (stereo not shown) [Compound 60],Intraocular pressure in the left eye,"5.0 mg/mL group, 1 hour after administration",11.33 mmHg
same,Intraocular pressure in the left eye,"5.0 mg/mL group, 2 hours after administration",11.42 mmHg
same,Intraocular pressure in the left eye,"5.0 mg/mL group, 4 hours after administration",12.63 mmHg
same,Intraocular pressure in the left eye,"5.0 mg/mL group, 6 hours after administration",12.75 mmHg
same,Intraocular pressure in the left eye,"5.0 mg/mL group, 8 hours after administration",13.29 mmHg
same,Intraocular pressure in the left eye,"5.0 mg/mL group, 10 hours after administration",14.08 mmHg
same,Intraocular pressure in the left eye,"5.0 mg/mL group, before administration",11.79 mmHg
same,Intraocular pressure in the right eye,"5.0 mg/mL in right eye, 1 hour after administration",7.83 mmHg
same,Intraocular pressure in the right eye,"5.0 mg/mL in right eye, 2 hours after administration",7.00 mmHg
same,Intraocular pressure in the right eye,"5.0 mg/mL in right eye, 4 hours after administration",7.79 mmHg
same,Intraocular pressure in the right eye,"5.0 mg/mL in right eye, 6 hours after administration",8.54 mmHg
same,Intraocular pressure in the right eye,"5.0 mg/mL in right eye, 8 hours after administration",10.13 mmHg
same,Intraocular pressure in the right eye,"5.0 mg/mL in right eye, 10 hours after administration",12.54 mmHg
same,Intraocular pressure in the right eye,"5.0 mg/mL in right eye, before administration",11.75 mmHg
same,Reduction magnitude of intraocular pressure,"5.0 mg/mL, 1 hour after administration",3.5 mmHg
same,Reduction magnitude of intraocular pressure,"5.0 mg/mL, 2 hours after administration",4.42 mmHg
same,Reduction magnitude of intraocular pressure,"5.0 mg/mL, 4 hours after administration",4.84 mmHg
same,Reduction magnitude of intraocular pressure,"5.0 mg/mL, 6 hours after administration",4.21 mmHg
same,Reduction magnitude of intraocular pressure,"5.0 mg/mL, 8 hours after administration",3.16 mmHg
same,Reduction magnitude of intraocular pressure,"5.0 mg/mL, 10 hours after administration",1.54 mmHg
same,Reduction magnitude of intraocular pressure,"5.0 mg/mL, before administration",0.04 mmHg
same,Intraocular pressure in the left eye,"10.0 mg/mL group, 1 hour after administration",12.08 mmHg
same,Intraocular pressure in the left eye,"10.0 mg/mL group, 2 hours after administration",12.08 mmHg
same,Intraocular pressure in the left eye,"10.0 mg/mL group, 4 hours after administration",12.96 mmHg
same,Intraocular pressure in the left eye,"10.0 mg/mL group, 6 hours after administration",12.38 mmHg
same,Intraocular pressure in the left eye,"10.0 mg/mL group, 8 hours after administration",13.04 mmHg
same,Intraocular pressure in the left eye,"10.0 mg/mL group, 10 hours after administration",13.38 mmHg
same,Intraocular pressure in the left eye,"10.0 mg/mL group, before administration",11.96 mmHg
same,Intraocular pressure in the right eye,"10.0 mg/mL in right eye, 1 hour after administration",7.96 mmHg
same,Intraocular pressure in the right eye,"10.0 mg/mL in right eye, 2 hours after administration",6.42 mmHg
same,Intraocular pressure in the right eye,"10.0 mg/mL in right eye, 4 hours after administration",7.13 mmHg
same,Intraocular pressure in the right eye,"10.0 mg/mL in right eye, 6 hours after administration",8.00 mmHg
same,Intraocular pressure in the right eye,"10.0 mg/mL in right eye, 8 hours after administration",9.42 mmHg
same,Intraocular pressure in the right eye,"10.0 mg/mL in right eye, 10 hours after administration",10.96 mmHg
same,Intraocular pressure in the right eye,"10.0 mg/mL in right eye, before administration",11.33 mmHg
same,Reduction magnitude of intraocular pressure,"10.0 mg/mL, 1 hour after administration",4.12 mmHg
same,Reduction magnitude of intraocular pressure,"10.0 mg/mL, 2 hours after administration",5.66 mmHg
same,Reduction magnitude of intraocular pressure,"10.0 mg/mL, 4 hours after administration",5.83 mmHg
same,Reduction magnitude of intraocular pressure,"10.0 mg/mL, 6 hours after administration",4.38 mmHg
same,Reduction magnitude of intraocular pressure,"10.0 mg/mL, 8 hours after administration",3.62 mmHg
same,Reduction magnitude of intraocular pressure,"10.0 mg/mL, 10 hours after administration",2.42 mmHg
same,Reduction magnitude of intraocular pressure,"10.0 mg/mL, before administration",0.63 mmHg
same,Intraocular pressure in the left eye,"20 mg/mL group, 1 hour after administration",12.42 mmHg
same,Intraocular pressure in the left eye,"20 mg/mL group, 2 hours after administration",12.96 mmHg
same,Intraocular pressure in the left eye,"20 mg/mL group, 4 hours after administration",13.17 mmHg
same,Intraocular pressure in the left eye,"20 mg/mL group, 6 hours after administration",12.54 mmHg
same,Intraocular pressure in the left eye,"20 mg/mL group, 8 hours after administration",13.17 mmHg
same,Intraocular pressure in the left eye,"20 mg/mL group, 10 hours after administration",13.71 mmHg
same,Intraocular pressure in the left eye,"20 mg/mL group, before administration",12.63 mmHg
same,Intraocular pressure in the right eye,"20 mg/mL in right eye, 1 hour after administration",10.21 mmHg
same,Intraocular pressure in the right eye,"20 mg/mL in right eye, 2 hours after administration",7.17 mmHg
same,Intraocular pressure in the right eye,"20 mg/mL in right eye, 4 hours after administration",7.92 mmHg
same,Intraocular pressure in the right eye,"20 mg/mL in right eye, 6 hours after administration",7.63 mmHg
same,Intraocular pressure in the right eye,"20 mg/mL in right eye, 8 hours after administration",8.83 mmHg
same,Intraocular pressure in the right eye,"20 mg/mL in right eye, 10 hours after administration",10.83 mmHg
same,Intraocular pressure in the right eye,"20 mg/mL in right eye, before administration",12.42 mmHg
same,Reduction magnitude of intraocular pressure,"20 mg/mL, 1 hour after administration",2.21 mmHg
same,Reduction magnitude of intraocular pressure,"20 mg/mL, 2 hours after administration",5.79 mmHg
same,Reduction magnitude of intraocular pressure,"20 mg/mL, 4 hours after administration",5.25 mmHg
same,Reduction magnitude of intraocular pressure,"20 mg/mL, 6 hours after administration",4.91 mmHg
same,Reduction magnitude of intraocular pressure,"20 mg/mL, 8 hours after administration",4.34 mmHg
same,Reduction magnitude of intraocular pressure,"20 mg/mL, 10 hours after administration",2.88 mmHg
same,Reduction magnitude of intraocular pressure,"20 mg/mL, before administration",0.21 mmHg
same,Reduction of intraocular pressure,"concentrations of 2.5, 5 and 10 mg/mL",remarkably significant reduction of intraocular pressure
